Assay results as given in the supplement of paper PMC11208160.

Experiment: recombinant barcode read abundance after kanamycin selection (control-corrected) (log10(CPM+1)); higher = more efficient recombination; sequences stand for … in AGTGCAGAGAAAATCGGCCAGTTTTCTCTGCCTGCAGTCCGCATGCCGT…AGATTTATGCAGCGGACTGCCTTTCTCCCAAAGTGATAAACCGGACAGTATCATGGACCGGTTTTCCCGGTAATCCGTATTTGCAAGGTTGGTTTCACT; site = the 11-nt target
Method in brief: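 Duplicate cultures were plated either on chloramphenicol/ampicillin LB agar, serving as control, or on chloramphenicol/ampicillin/kanamycin with 0.1 mM IPTG. These came from a pooled E. coli library co-electroporated with a donor plasmid, each member pairing a target with an IS621 bridge RNA target-binding loop. Recombination efficiency equals averaged, control-corrected counts per million of recombinant-junction barcodes. It is listed as log10(CPM+1).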
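Also: IS621 recombinase and bridge RNA in Escherichia coli cells.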

Row | Sequence | recombinant barcode read abundance (log10)
1 | GTCACCTCTTGGGTTCTAACCTGTTGCTA (site GTAACCTCTGA) | 0.217
2 | GTCACCTCTTGGGTTCTAACCTGTTGCTA (site GTCACCTCTTA) | 1.58
3 | GTCACTACTTGGGTTCTAACCTGTTGCAT (site AAGGTACCTCC) | 0.139
4 | GTCACTACTTGGGTTCTAACCTGTTGCAT (site GTCACTACTAT) | 0.381
5 | GTCAGCTCTTGGGTTCTAACCTGTTGCTA (site GACCGCTCTTA) | 0.127
6 | GTCAGCTCTTGGGTTCTAACCTGTTGCTA (site GTCAGCTCTTA) | 1.16
7 | GTCATACCTTGGGTTCTAACCTGTTGCCT (site GTCATACCTAG) | 1.02
8 | GTCATACCTTGGGTTCTAACCTGTTGCCT (site GTCCTACCTAG) | 0.0356
9 | GTCATACCTTGGGTTCTAACCTGTTGCCT (site GTCGTACCTAG) | 0.111
10 | GTCATACCTTGGGTTCTAACCTGTTGCCT (site GTCTTACCTAG) | 0.203
11 | GTCATGCCTTGGGTTCTAACCTGTTGCCT (site GGCCTGCCTAG) | 0.0766
12 | GTCATGCCTTGGGTTCTAACCTGTTGCCT (site GTCATGCCTAG) | 1.1
13 | GTCCACCCTTGGGTTCTAACCTGTTGCAG (site GTCCACCCTCT) | 1.86
14 | GTCCACCCTTGGGTTCTAACCTGTTGCAG (site GTCCACTCTGT) | 0.01
15 | GTCCACTCTTGGGTTCTAACCTGTTGCTT (site GTCCACTCTAA) | 1.46
16 | GTCCACTCTTGGGTTCTAACCTGTTGCTT (site GTCCAGTCTAC) | 0
17 | GTCCAGGCTTGGGTTCTAACCTGTTGCGG (site GACCAGTCTCC) | 0.421
18 | GTCCAGGCTTGGGTTCTAACCTGTTGCGG (site GTCCAGGCTCC) | 0.924
19 | GTCCCTCCTTGGGTTCTAACCTGTTGCCT (site GTCCCTCCTAA) | 0.187
20 | GTCCCTCCTTGGGTTCTAACCTGTTGCCT (site GTCCCTCCTAC) | 0.116

Row | Sequence | recombinant barcode read abundance (log10)
21 | GTCCCTCCTTGGGTTCTAACCTGTTGCCT (site GTCCCTCCTAG) | 0.709
22 | GTCCCTCCTTGGGTTCTAACCTGTTGCCT (site GTCCCTCCTAT) | 0.586
23 | GTCCGAACTTGGGTTCTAACCTGTTGCCA (site GTCCGAACTTG) | 0.428
24 | GTCCGAACTTGGGTTCTAACCTGTTGCCA (site GTCGGAGCTTG) | 0.0199
25 | GTCCGTCCTTGGGTTCTAACCTGTTGCCT (site GTCCGTCCTAA) | 0.119
26 | GTCCGTCCTTGGGTTCTAACCTGTTGCCT (site GTCCGTCCTAC) | 0.0319
27 | GTCCGTCCTTGGGTTCTAACCTGTTGCCT (site GTCCGTCCTAG) | 0.833
28 | GTCCGTCCTTGGGTTCTAACCTGTTGCCT (site GTCCGTCCTAT) | 0.0563
29 | GTCCGTCCTTGGGTTCTAACCTGTTGCGT (site GTCCGTCCTAA) | 0.139
30 | GTCCGTCCTTGGGTTCTAACCTGTTGCGT (site GTCCGTCCTAC) | 1.69
31 | GTCCGTCCTTGGGTTCTAACCTGTTGCGT (site GTCCGTCCTAG) | 0.09
32 | GTCCGTCCTTGGGTTCTAACCTGTTGCGT (site GTCCGTCCTAT) | 0.504
33 | GTCCTATCTTGGGTTCTAACCTGTTGCTA (site AGGTCTACTGT) | 0.146
34 | GTCCTATCTTGGGTTCTAACCTGTTGCTA (site GTCCTATCTTA) | 0.656
35 | GTCCTGTCTTGGGTTCTAACCTGTTGCCG (site GTCCTGTCTCG) | 1.16
36 | GTCCTGTCTTGGGTTCTAACCTGTTGCCG (site GTCGTGTCTCG) | 0.397
37 | GTCGACCCTTGGGTTCTAACCTGTTGCCT (site GTCGACCCTAG) | 1.98
38 | GTCGACCCTTGGGTTCTAACCTGTTGCCT (site GTCGACGCTAG) | 0.136
39 | GTCGCGACTTGGGTTCTAACCTGTTGCCT (site GTCGCGACTAG) | 0.0792
40 | GTCGCGACTTGGGTTCTAACCTGTTGCCT (site GTCGCGCCTAG) | 0.353

Row | Sequence | recombinant barcode read abundance (log10)
41 | GTCGCGACTTGGGTTCTAACCTGTTGCCT (site GTCGCGGCTAG) | 0.145
42 | GTCGCGACTTGGGTTCTAACCTGTTGCCT (site GTCGCGTCTAG) | 0.215
43 | GTCGGAGCTTGGGTTCTAACCTGTTGCCA (site GTCCGAACTTG) | 0.0692
44 | GTCGGAGCTTGGGTTCTAACCTGTTGCCA (site GTCGGAGCTTG) | 0.959
45 | GTCGGGCCTTGGGTTCTAACCTGTTGCCT (site ATCGGGCCTAG) | 0.0962
46 | GTCGGGCCTTGGGTTCTAACCTGTTGCCT (site CTCGGGCCTAG) | 0.0668
47 | GTCGGGCCTTGGGTTCTAACCTGTTGCCT (site GTCGGGCCTAG) | 0.686
48 | GTCGGGCCTTGGGTTCTAACCTGTTGCCT (site TTCGGGCCTAG) | 0.126
49 | GTCGTGTCTTGGGTTCTAACCTGTTGCCG (site GTCCTGTCTCG) | 0.0845
50 | GTCGTGTCTTGGGTTCTAACCTGTTGCCG (site GTCGTGTCTCG) | 1.28
51 | GTCGTTGCTTGGGTTCTAACCTGTTGCCT (site ATCGTTGCTAG) | 0.522
52 | GTCGTTGCTTGGGTTCTAACCTGTTGCCT (site CTCGTTGCTAG) | 0.0407
53 | GTCGTTGCTTGGGTTCTAACCTGTTGCCT (site GTCGTTGCTAG) | 1.07
54 | GTCGTTGCTTGGGTTCTAACCTGTTGCCT (site TTCGTTGCTAG) | 1.19
55 | GTCTAATCTTGGGTTCTAACCTGTTGCCT (site GTCTAATCTAG) | 0.719
56 | GTCTAATCTTGGGTTCTAACCTGTTGCCT (site GTCTCATCTAG) | 0.271
57 | GTCTAATCTTGGGTTCTAACCTGTTGCCT (site GTCTGATCTAG) | 0.174
58 | GTCTAATCTTGGGTTCTAACCTGTTGCCT (site GTCTTATCTAG) | 0.0315
59 | GTCTACGCTTGGGTTCTAACCTGTTGCCA (site GTCTAAGCTCG) | 0.0189
